Reference: US10251869B2, “Compositions and methods of inhibiting metallo-β-lactamases” (priority 2014, dated 2019)
Values after ≈ are worked out from the molar mass of the structure shown.

Legend:
VIM-24 = target: T1, VIM-24 (Escherichia coli, UniProt Q5U7L7, R205L); assay: BTZ inhibition kinetics of nitrocefin hydrolysis by VIM-24; format: biochemical; settings: for k2: rate constant for formation of E*I
T1 construct: which corresponds to cleavage after residues 20 (plus an additional Met residue on the N-terminus); made in house; host or cells: E. coli BL21(DE3) pLys, plasmid pET-24a(+)-blaVIM-24-S21
Excerpt: (§1) Analysis of BTZ inhibition kinetics. Models involving one, or two-step slow binding were considered to analyze BTZ inhibition of NFC hydrolysis by VIM-2 and VIM-24 (Scheme 1).
(§2) Here E represents the free enzyme, and I the free inhibitor, EI is the final enzyme-inhibitor complex for a single step slow binding mechanism, and E*I is the enzyme-inhibitor complex formed after conformational changes in a two-step slow binding mechanism. Therefore, the dissociation constant for the EI complex (Ki), also called the inhibitor constant, is defined as Ki=k−1/k1; the dissociation constant for the E*I complex (Ki′) is defined as Ki′=k−2/k2, and the overall dissociation constant for the two-step mechanism (Ki*) is defined as Ki*=Ki/(1+([…])).
(§3) The Ki for each inhibitor was determined by direct competition assays under steady-state conditions. The initial velocity was measured in the presence of a constant concentration of enzyme (3 nM for VIM-2 and 4 nM for VIM-24) with increasing concentrations of inhibitor (5-60 μM) against a fixed concentration (5 x KM) of the indicator substrate, NCF, as previously described (42-44). The reactions were started by addition of VIM-2 or VIM-24 to substrate or to mixtures of substrate and inhibitor. Data were linearized by plotting inverse initial steady-state velocities (1/v0) against inhibitor concentration (I). Ki (observed) was determined by dividing the value for the y intercept by the slope of the line. Ki determinations were corrected to account for the affinity of NCF for the β-lactamase according to equation 3.
(§4) Measurements of association rate constants for inhibitor binding were carried out at 25° C. in 10 mM HEPES at pH 7.5 supplemented with 200 mM NaCl, 50 μM […] and 50 μg/ml BSA, in the presence of several concentrations of each compound. Reactions were then initiated by the addition of β-lactamase (3 nM VIM-2 or 4 nM VIM-24) to a mixture of 50 μM NCF and each BTZ without pre-incubation. Inhibitor association rate constants were estimated from linear extrapolation of the observed rate constant for inhibition (kobs), which was obtained by fitting progress curves of NFC hydrolysis to Eq. 4:
(§5) As previously described, the linear dependence of kobs vs. [I] at limiting I concentration approximates second-order rate constant k2/Ki. The observed second-order rate constant also includes an adjustment for competition between inhibitor and substrate binding (Eq. 5).
(§6) Also, vs calculated from the progress curves of NCF hydrolysis for each concentration of inhibitor were used to determine Ki*, according to the relationship shown in equation 6 (5). The value reported is the mean of three velocities±SD.
(§7) To further test the time-dependent inhibition mechanism of inhibitor binding, assays using dilutions of pre-formed complexes were performed. For these experiments, 1 μM of enzyme was incubated with varying concentrations of the inhibitor which allowed for complete inactivation of the enzyme during the 5 min incubation at 25° C. The reactions were then diluted 2,000-fold in 10 mM HEPES at pH 7.5 supplemented with 200 mM NaCl, 50 μM […] and 50 μg/ml BSA, which contained 50 μM NCF. Reactivation of the enzyme based on NCF hydrolysis was monitored over time. Control reaction with the free enzyme was performed in the same fashion.

VIM-2 = target: T2, VIM-2 (Pseudomonas aeruginosa, UniProt Q9K2N0); assay: BTZ inhibition kinetics of nitrocefin hydrolysis by VIM-2; format: biochemical, P. aeruginosa; settings: for k−2: rate constant for breakdown of E*I; for k2: rate constant for formation of E*I
T2 construct: made in house; host or cells: E. coli BL21(DE3) pLys, plasmid pET-24a(+)-blaVIM-2-S21
Excerpt: as §1, §2, §3, §4, §5, §6, §7

[1] = system: E. coli DH10B pBCSK(−) producing R228Y variant; assay: MIC by agar dilution, E. coli DH10B producing VIM-2 R228Y; format: cell-based; settings: Escherichia coli, MHA
Method: (§8) E. coli DH10B (Invitrogen, Carlsbad, Calif.) was used as a host strain for pBCSK (−) blaVIM-2, and to obtain a mutant library at position 228 by site-saturation mutagenesis, using the QuickChange XL Site-directed Mutagenesis Kit (Stratagene). Briefly, primers that capture all 19 variants at MBL position 228 were designed and PCR mutagenic reactions were conducted using pBCSK (−) blaVIM-2 as a template, and transformed into E. coli DH10B. Single colonies were selected for plasmid purification, and successful mutagenesis was verified by complete DNA sequencing.
(§9) The effect of Zn^2+ availability was also tested by agar dilution using MH supplemented with 250 μM ZnSO4 or 5 μM EDTA. Reported values are the mode of at least 3 biological replicates.

[2] = system: E. coli DH10B pBCSK(−) producing VIM-24 (R228L); assay: MIC by agar dilution, E. coli DH10B producing VIM-24; format: cell-based; settings: Escherichia coli, MHA, read-out: MIC
Method: as §8, §9

[3] = system: E. coli DH10B pBCSK(−) producing VIM-2 (228R); assay: MIC by agar dilution, E. coli DH10B producing VIM-2; format: cell-based; settings: Escherichia coli, MHA, read-out: MIC
Excerpt: A forward primer containing the SacI restriction site and a reverse primer with the BamHI restriction site were used to amplify blaVIM-2 including the pET24a(+) ribosomal binding site, using plasmid pET-24a(+)-blaVIM-2 as template. The product was then subcloned into phagemid pBCSK (−) (Agilent (Santa Clara, Calif.)) using the above restriction sites, and thus placing the blaVIM-2 open reading frame under control of the lac promoter, to yield phagemid pBCSK (−) blaVIM-2.
as §8, §9

[4] = system: E. coli DH10B pBCSK(−) producing R228P variant; assay: MIC by agar dilution, E. coli DH10B producing VIM-2 R228P; format: cell-based; settings: Escherichia coli, MHA
Method: as §8, §9

[5] = system: E. coli DH10B pBCSK(−) producing R228K variant; assay: MIC by agar dilution, E. coli DH10B producing VIM-2 R228K; format: cell-based; settings: Escherichia coli, MHA
Method: as §8, §9

[6] = system: E. coli DH10B pBCSK(−) producing R228M variant; assay: MIC by agar dilution, E. coli DH10B producing VIM-2 R228M; format: cell-based; settings: Escherichia coli, MHA
Method: as §8, §9

[7] = system: E. coli DH10B pBCSK(−) producing R228Q variant; assay: MIC by agar dilution, E. coli DH10B producing VIM-2 R228Q; format: cell-based; settings: Escherichia coli, MHA
Method: as §8, §9

E. coli pBC SK(−) = assay: MIC by agar dilution, E. coli DH10B host with empty phagemid; format: cell-based; settings: Escherichia coli, MHA
Method: as §8, §9

[8] = system: O=C(Cc1cccs1)N[C@@H]1C(=O)N2C(C(=O)O)=C(/C=C/c3ccc([N+](=O)[O-])cc3[N+](=O)[O-])CS[C@H]12; assay: Steady-state kinetic parameters of substrate hydrolysis by VIM-2; format: biochemical, P. aeruginosa; settings: other: VIM-2, pH 7.5, 25° C., average ± SD, triplicate
Excerpt: (§10) Steady-state reactions were followed using an Agilent (Santa Clara, Calif.) 8453 Diode Array spectrophotometer as previously described. […] For ceftazidime and cefepime, a 0.2-cm path length quartz cuvette was used. A nonlinear leastsquares fit of the data (Henri Michaelis-Menten equation) using Enzfitter (Biosoft Corporation, Ferguson, Mo.) was employed to obtain the steady-state kinetic parameters Vmax and KM according to equation 1.
(§11) In this equation the observed first-order rate constant k=kcat/KM*[E].

[9] = system: C[C@@H](O)[C@H]1C(=O)N2C(C(=O)O)=C(SCCN=CN)C[C@H]12; assay: as above; format: biochemical, P. aeruginosa; settings: other: VIM-2, pH 7.5, 25° C., average ± SD, triplicate
Excerpt: as §10, §11

[10] = system: CC(=O)OCC1=C(C(=O)O)N2C(=O)[C@@H](NC(=O)Cc3cccs3)[C@H]2SC1; assay: as above; format: biochemical, P. aeruginosa; settings: other: VIM-2, pH 7.5, 25° C., average ± SD, triplicate
Excerpt: as §10, §11

[11] = initial complex EI, NCF as reporter substrate
[12] = overall dissociation constant of two-step mechanism (E*I)

Compound	k2 (VIM-24)	Ki (VIM-2; [11])	Ki (VIM-2; [12])	k−2 (VIM-2)	k2 (VIM-2)	MIC [1]	MIC [2]	MIC [3]	MIC [4]	MIC [5]	MIC [6]	MIC [7]	MIC (E. coli pBC SK(−))	further results
O=C(O)[C@H]1CS[C@@H]2CS[C@@H](CS)N12 [D-CS319]	0.07 ± 4 × 10^−3 s−1	5.4 ± 0.4 µM	0.18 ± 0.02 µM	0.0003 ± 1 × 10^−4 s^−1	0.01 ± 1 × 10^−3 s^−1									k−2 (VIM-24; rate constant for breakdown of E*I): 0.004 ± 1 × 10^−3 s^−1
CO/N=C(\C(=O)N[C@@H]1C(=O)N2C(C(=O)O)=C(CSc3nc(=O)c(=O)[nH]n3C)CS[C@H]12)c1csc(N)n1 [Ceftriaxone]						16 µg/mL (≈ 28.9 µM)	8 µg/mL (≈ 14.4 µM)	8 µg/mL (≈ 14.4 µM)	0.5 µg/mL (≈ 0.902 µM)	1 µg/mL (≈ 1.8 µM)	16 µg/mL (≈ 28.9 µM)	32 µg/mL (≈ 57.7 µM)	0.5 µg/mL (≈ 0.902 µM)	
VIM-2 (Pseudomonas aeruginosa)														Km [8]: 13 ± 1 µM; kcat [8]: 430 ± 20 s⁻¹; kcat/Km [8]: 3.3e+07 M⁻¹ s⁻¹; Km [9]: 12 ± 1 µM; kcat [9]: 45 ± 1 s⁻¹; kcat/Km [9]: 3.6e+06 M⁻¹ s⁻¹; Km [10]: 17 ± 2 µM; kcat [10]: 168 ± 8 s⁻¹; kcat/Km [10]: 9.8e+06 M⁻¹ s⁻¹
CC1(C)S[C@@H]2[C@H](NC(=O)[C@H](N)c3ccccc3)C(=O)N2[C@H]1C(=O)O [Ampicillin]						1020 µg/mL (≈ 2930 µM)	512 µg/mL (≈ 1470 µM)	512 µg/mL (≈ 1470 µM)	32 µg/mL (≈ 91.6 µM)	32 µg/mL (≈ 91.6 µM)	1020 µg/mL (≈ 2930 µM)	1020 µg/mL (≈ 2930 µM)	4 µg/mL (≈ 11.4 µM)	
CC1(C)SC2CSC(CS)N2C1C(=O)O [L-VC26]	0.04 ± 2 × 10^−3 s−1	3.8 ± 0.2 µM	0.25 ± 0.01 µM	0.001 ± 1 × 10^−3 s^−1	0.02 ± 1 × 10^−3 s^−1									
